Among the data in patent US10829478B2, “5-[3-[piperazin-1-yl]-3-oxo-propyl]-imidazolidine-2,4-dione derivatives as ADAMTS 4 and 5 inhibitors for treating e.g. osteoarthritis” (Galapagos NV, priority 2016, dated 2020) are IC50 values, retold here.

In one assay the target is human ADAMTS4 (Homo sapiens (Human), UniProt O75173). As to the kind of experiment: hADAMTS-4 TBIS-1 cleavage assay, Protocol 2. The assay is classed as biochemical.
The target of another assay is human ADAMTS-5 (Homo sapiens (Human), UniProt Q9UNA0). Description: hADAMTS-5 TBIS-1 cleavage assay, Protocol 3. The assay is classed as biochemical. Conditions: 90 min at 37° C., read-out: hADAMTS-5 potency IC50.
In a further assay the target is human ADAMTS6 (Homo sapiens (Human), UniProt Q9UKP5). Description: hADAMTS-6 fluorescent based protease assay (520 MMP FRET substrate XII). The settings on record: 37° C. for 2 h; read-out: hADAMTS-6 potency IC50. It is filed as biochemical. On the procedure: The IC50 value for test compounds can be determined in a fluorescent based protease assay.
The substrate contains sequence Arg-Pro-Lys-Pro-Tyr-Ala-Nva-Trp-Met-Lys (SEQ ID NO: 7) with attached a fluorescent probe and a quencher. Without ADAMTS6, the emission of the probe is quenched. If the substrate is cleaved by ADAMTS6, the emission of the probe is not quenched anymore. Inhibition of ADAMTS6 activity, will result in a decrease of the signal.
To perform the assay, 4 μL of a dilution series of compound in water, starting from 20 μM highest concentration, ⅕ dilution, is added to the wells. 2 ng ADAMTS6 enzyme is diluted in 25 mM Tris pH8.0, 0.05% CHAPS, 2.5 mM CaCl2 in a total volume of 26 μL (final concentration 0.73 nM). The reaction is started by addition of 10 μL of 1 μM 520 MMP FRET Substrate XII (final concentration, diluted in same buffer as described above) and the mixture is incubated at 37° C. for 2 h. […] After this incubation, cleavage of the substrate is measured using the Envision (Perkin Elmer, exc485/em530).

For a further assay, the target named is human MMP13 (Homo sapiens (Human), UniProt P45452). As to the kind of experiment: hMMP13 assay, Protocol 1 (390 MMP FRET Substrate I, Chemicon enzyme). It is filed as biochemical. The settings on record: Protocol 1, human MMP13 (Chemicon), read-out: hMMP-13 potency IC50. As to the method:
Human MMP13 is preactivated by incubated the enzyme in the same buffer complemented with 1 mM freshly prepared p-Aminophenylmercuric acetate (AMPA) for 1 h at 37° C.

A further assay deals with human TACE (Homo sapiens (Human), UniProt P78536). Description: biochemical.
The mark [1] stands for this setting: Protocol 2, 180 min at 37° C., read-out: ADAMTS4 potency IC50.

Read-outs that look alike come from different tables or passages of the source. Bounds are passed on as bounds.

Sequence of human TACE (P78536 215-671): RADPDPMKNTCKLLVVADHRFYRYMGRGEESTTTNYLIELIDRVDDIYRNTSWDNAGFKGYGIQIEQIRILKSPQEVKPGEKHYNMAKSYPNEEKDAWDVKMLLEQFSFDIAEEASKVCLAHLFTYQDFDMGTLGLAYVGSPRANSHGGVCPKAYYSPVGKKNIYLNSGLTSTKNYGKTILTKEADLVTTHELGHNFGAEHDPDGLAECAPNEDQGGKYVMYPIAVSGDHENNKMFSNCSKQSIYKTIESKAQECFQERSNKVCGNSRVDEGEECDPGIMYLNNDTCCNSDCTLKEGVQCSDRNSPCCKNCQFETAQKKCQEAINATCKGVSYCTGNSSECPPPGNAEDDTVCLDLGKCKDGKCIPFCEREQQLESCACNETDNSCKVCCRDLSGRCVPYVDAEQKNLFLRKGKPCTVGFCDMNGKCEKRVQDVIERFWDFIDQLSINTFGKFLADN
Sequence of human ADAMTS6 (Q9UKP5 other isoform, or with tags, fused parts or gaps): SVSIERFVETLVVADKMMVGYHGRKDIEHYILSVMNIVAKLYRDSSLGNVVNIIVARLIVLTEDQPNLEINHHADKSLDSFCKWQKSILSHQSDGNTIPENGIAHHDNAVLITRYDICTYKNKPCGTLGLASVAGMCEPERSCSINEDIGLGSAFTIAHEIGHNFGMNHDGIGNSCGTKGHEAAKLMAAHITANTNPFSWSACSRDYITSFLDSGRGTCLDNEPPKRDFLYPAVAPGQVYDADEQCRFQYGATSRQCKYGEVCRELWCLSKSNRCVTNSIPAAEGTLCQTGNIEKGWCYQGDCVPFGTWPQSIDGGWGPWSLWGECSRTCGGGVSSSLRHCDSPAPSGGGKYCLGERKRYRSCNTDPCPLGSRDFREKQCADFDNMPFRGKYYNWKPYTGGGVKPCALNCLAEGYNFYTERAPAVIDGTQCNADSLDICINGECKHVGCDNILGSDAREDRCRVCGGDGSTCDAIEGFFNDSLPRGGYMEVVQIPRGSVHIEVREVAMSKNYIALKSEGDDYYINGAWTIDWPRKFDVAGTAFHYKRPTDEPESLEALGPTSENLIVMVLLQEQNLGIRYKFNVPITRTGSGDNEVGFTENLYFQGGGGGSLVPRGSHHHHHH
Sequence of human ADAMTS4 (O75173 213-837): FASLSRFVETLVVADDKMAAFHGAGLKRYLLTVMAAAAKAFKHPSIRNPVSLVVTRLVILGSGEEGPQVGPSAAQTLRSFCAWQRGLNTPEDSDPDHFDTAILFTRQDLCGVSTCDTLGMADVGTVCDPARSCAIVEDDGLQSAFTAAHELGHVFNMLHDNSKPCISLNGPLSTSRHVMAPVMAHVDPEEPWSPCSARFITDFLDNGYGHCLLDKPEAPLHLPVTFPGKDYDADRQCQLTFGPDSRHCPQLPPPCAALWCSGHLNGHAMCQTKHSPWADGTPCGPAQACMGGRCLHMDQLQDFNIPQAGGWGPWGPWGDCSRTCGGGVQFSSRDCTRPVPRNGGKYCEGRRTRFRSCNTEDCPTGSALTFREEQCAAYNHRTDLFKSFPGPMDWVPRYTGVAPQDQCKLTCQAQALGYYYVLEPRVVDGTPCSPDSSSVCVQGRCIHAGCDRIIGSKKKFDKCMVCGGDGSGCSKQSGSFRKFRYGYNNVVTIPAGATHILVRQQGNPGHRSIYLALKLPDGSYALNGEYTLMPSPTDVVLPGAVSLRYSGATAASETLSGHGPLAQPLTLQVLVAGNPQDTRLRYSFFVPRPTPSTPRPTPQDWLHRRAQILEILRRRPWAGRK
Sequence of human ADAMTS-5 (Q9UNA0 262-930): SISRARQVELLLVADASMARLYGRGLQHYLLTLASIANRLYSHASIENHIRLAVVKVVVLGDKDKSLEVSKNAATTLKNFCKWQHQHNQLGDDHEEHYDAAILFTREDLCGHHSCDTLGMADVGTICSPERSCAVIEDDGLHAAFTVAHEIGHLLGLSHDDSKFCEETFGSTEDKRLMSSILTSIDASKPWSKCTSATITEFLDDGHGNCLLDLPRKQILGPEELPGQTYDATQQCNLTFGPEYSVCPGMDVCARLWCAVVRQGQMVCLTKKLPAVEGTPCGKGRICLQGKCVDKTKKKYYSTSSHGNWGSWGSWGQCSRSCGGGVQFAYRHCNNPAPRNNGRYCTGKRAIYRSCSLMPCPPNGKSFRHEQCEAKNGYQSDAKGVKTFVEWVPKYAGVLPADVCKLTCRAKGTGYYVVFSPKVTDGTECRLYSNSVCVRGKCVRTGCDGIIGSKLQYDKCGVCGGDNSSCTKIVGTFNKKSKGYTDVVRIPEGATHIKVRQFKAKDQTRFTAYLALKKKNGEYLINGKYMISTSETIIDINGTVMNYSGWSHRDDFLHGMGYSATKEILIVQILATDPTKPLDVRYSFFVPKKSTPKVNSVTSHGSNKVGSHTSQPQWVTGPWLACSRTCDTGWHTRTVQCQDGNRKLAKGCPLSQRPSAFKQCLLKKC
Experimental for human ADAMTS-5: The reaction is initiated by adding to the assay plate TBIS-1 (10 μL, 4.5 μM, Anaspec) in the same buffer.
Finally, the fluorescence is read on the Envision (Perkin Elmer) after an incubation of 90 min at 37° C. (Excitation 485 nm, emission 530).
Experimental for human TACE: Finally, the fluorescence is read on the Envision (Perkin Elmer) after an incubation of 75 min at room temperature (Excitation 485 nm, Emission 530).

As to `COc1cc(N2CCN(C(=O)CCC3(C)NC(=O)NC3=O)C[C@@H]2C)cc(F)c1F` (some centres unmarked) [Cpd 22, 5-[3-[(3 S)-4-(3,4-difluoro-5-methoxy-phenyl)-3-methyl-piperazin-1-yl]-3-oxo-propyl]-5-methyl-imidazolidine-2,4-dione], the half-inhibitory concentration (IC50) was more than 100 nM on human ADAMTS4 (setting [1]); more than 100 nM at human ADAMTS-5; 0.001 to 25 nM at human ADAMTS6; more than 100 nM at human MMP13; more than 100 nM against human TACE.

On to `COc1cncc(N2CCN(C(=O)CCC3(C4CC4)NC(=O)NC3=O)C[C@@H]2C)c1` (stereo partly drawn) [Cpd 60, 5-cyclopropyl-5-[3-[(3S)-4-(5-methoxy-3-pyridyl)-3-methyl-piperazin-1-yl]-3-oxo-propyl]imidazolidine-2,4-dione], for which the IC50 on human ADAMTS4 (setting [1]), on human ADAMTS-5, on human ADAMTS6 and against human TACE was more than 100 nM throughout.

With `COc1cc(N2CCN(C(=O)CC[C@H]3NC(=O)NC3=O)CC2)cc(F)c1Cl` [Cpd 143, (5R)-5-[3-[4-(4-chloro-3-fluoro-5-methoxy-phenyl)piperazin-1-yl]-3-oxo-propyl]imidazolidine-2,4-dione], the half-inhibitory concentration (IC50) on human ADAMTS4 (setting [1]) is more than 100 nM; on human ADAMTS-5, more than 100 nM; at human ADAMTS6, 0.001 to 25 nM; at human MMP13, more than 100 nM; at human TACE, more than 100 nM.

In the case of `COc1cc(N2CCN(C(=O)CC[C@@]3(C)NC(=O)NC3=O)C[C@@H]2C)c(C)cc1F` [Cpd 66, (5R)-5-[3-[(3S)-4-(4-fluoro-5-methoxy-2-methyl-phenyl)-3-methyl-piperazin-1-yl]-3-oxo-propyl]-5-methyl-imidazolidine-2,4-dione], the IC50 at human ADAMTS-5 is more than 100 nM; on human ADAMTS6, 50 to 100 nM; at human TACE, more than 100 nM.

In the case of `COCC1(CC(C)C(=O)N2CCN(c3cc(F)c(F)c(OC)c3)[C@@H](C)C2)NC(=O)NC1=O` (mixture of isomers) [Cpd 46, 5-[3-[(3S)-4-(3,4-difluoro-5-methoxy-phenyl)-3-methyl-piperazin-1-yl]-2-methyl-3-oxo-propyl]-5-(methoxymethyl)imidazolidine-2,4-dione], the half-inhibitory concentration (IC50) at human ADAMTS4 was 25 to 50 nM; at human ADAMTS-5, 25 to 50 nM; at human ADAMTS6 it was 0.001 to 25 nM; on human MMP13 it was more than 100 nM; against human TACE it was more than 100 nM.

With `COc1cc(N2CCN(C(=O)CC[C@H]3NC(=O)NC3=O)CC2)cc(OC)c1F` [Cpd 151, (5R)-5-[3-[4-(4-fluoro-3,5-dimethoxy-phenyl)piperazin-1-yl]-3-oxo-propyl]imidazolidine-2,4-dione], the IC50 is more than 100 nM on human ADAMTS-5, 25 to 50 nM on human ADAMTS6 and more than 100 nM against human TACE.

As for `COc1cc(Cl)c(C)cc1N1CCN(C(=O)CC[C@@]2(C)NC(=O)NC2=O)C[C@@H]1C` [Cpd 95, (5R)-5-[3-[(3S)-4-(4-chloro-2-methoxy-5-methyl-phenyl)-3-methyl-piperazin-1-yl]-3-oxo-propyl]-5-methyl-imidazolidine-2,4-dione], the results for the IC50 on human ADAMTS-5, on human ADAMTS6 and on human TACE were more than 100 nM, 0.001 to 25 nM and more than 100 nM, respectively.

On to `COc1cc(Cl)ccc1N1CCN(C(=O)CC[C@@]2(C)NC(=O)NC2=O)CC1` [Cpd 73, (5R)-5-[3-[4-(4-chloro-2-methoxy-phenyl)piperazin-1-yl]-3-oxo-propyl]-5-methyl-imidazolidine-2,4-dione], for which the 50% inhibitory concentration (IC50) at human ADAMTS-5, at human ADAMTS6 and against human TACE was more than 100 nM in each case.

In the case of `COc1c(Cl)cccc1N1CCN(C(=O)CC[C@@]2(C)NC(=O)NC2=O)C[C@@H]1C` [Cpd 69, (5R)-5-[3-[(3 S)-4-(3-chloro-2-methoxy-phenyl)-3-methyl-piperazin-1-yl]-3-oxo-propyl]-5-methyl-imidazolidine-2,4-dione], the IC50 at human ADAMTS-5, on human ADAMTS6 and on human TACE was more than 100 nM throughout.

Turning to `COc1ccc(Cl)cc1N1CCN(C(=O)CC[C@@]2(C)NC(=O)NC2=O)C[C@@H]1C` [Cpd 91, (5R)-5-[3-[(3 S)-4-(5-chloro-2-methoxy-phenyl)-3-methyl-piperazin-1-yl]-3-oxo-propyl]-5-methyl-imidazolidine-2,4-dione], the IC50 on human ADAMTS-5, on human ADAMTS6 and at human TACE was more than 100 nM each time.

Turning to `COc1cc(N2CCN(C(=O)CC[C@H]3NC(=O)NC3=O)CC2)cc(F)c1F` [Cpd 128, (5R)-5-[3-[4-(3,4-difluoro-5-methoxy-phenyl)piperazin-1-yl]-3-oxo-propyl]imidazolidine-2,4-dione], the 50% inhibitory concentration (IC50) at human ADAMTS4 (setting [1]) was more than 100 nM; on human ADAMTS-5, more than 100 nM; on human ADAMTS6, 50 to 100 nM; on human MMP13 it was more than 100 nM; at human TACE, more than 100 nM.

Take `COc1ccc(C)c(N2CCN(C(=O)CC[C@H]3NC(=O)NC3=O)C[C@@H]2C)c1` [Cpd 140, (5R)-5-[3-[(3 S)-4-(5-methoxy-2-methyl-phenyl)-3-methyl-piperazin-1-yl]-3-oxo-propyl]imidazolidine-2,4-dione]: the IC50 on human ADAMTS-5 and on human ADAMTS6 was more than 100 nM in each case.

For `CCOc1cc(N2CCN(C(=O)CC[C@H]3NC(=O)NC3=O)CC2)cc(OC)c1Cl` [Cpd 149, (5R)-5-[3-[4-(4-chloro-3-ethoxy-5-methoxy-phenyl)piperazin-1-yl]-3-oxo-propyl]imidazolidine-2,4-dione], the IC50 on human ADAMTS-5 was more than 100 nM; at human ADAMTS6, 50 to 100 nM; at human TACE, more than 100 nM.

With `COc1cc(Cl)ccc1N1CCN(C(=O)CC[C@@]2(C)NC(=O)NC2=O)C[C@@H]1C` [Cpd 76, (5R)-5-[3-[(3 S)-4-(4-chloro-2-methoxy-phenyl)-3-methyl-piperazin-1-yl]-3-oxo-propyl]-5-methyl-imidazolidine-2,4-dione], the IC50 on human ADAMTS-5, on human ADAMTS6 and against human TACE was more than 100 nM throughout.

Regarding `COc1cccc(N2CCN(C(=O)CCC3(C)NC(=O)NC3=O)CC2)c1C` (centres unmarked) [Cpd 33, 5-[3-[4-(3-methoxy-2-methyl-phenyl)piperazin-1-yl]-3-oxo-propyl]-5-methyl-imidazolidine-2,4-dione], the half-inhibitory concentration (IC50) on human ADAMTS-5 and on human ADAMTS6 was more than 100 nM throughout.

Regarding `CCc1cccc(N2CCN(C(=O)CC[C@@]3(C)NC(=O)NC3=O)CC2)c1` [Cpd 70, (5R)-5-[3-[4-(3-ethylphenyl)piperazin-1-yl]-3-oxo-propyl]-5-methyl-imidazolidine-2,4-dione], the IC50 at human ADAMTS-5, on human ADAMTS6 and on human TACE was more than 100 nM in each case.

With `COc1cc(F)ccc1N1CCN(C(=O)CC[C@@]2(C)NC(=O)NC2=O)CC1` [Cpd 78, (5R)-5-[3-[4-(4-fluoro-2-methoxy-phenyl)piperazin-1-yl]-3-oxo-propyl]-5-methyl-imidazolidine-2,4-dione], the IC50 on human ADAMTS-5, at human ADAMTS6 and on human TACE was more than 100 nM each time.

In the case of `COc1ccc(C)c(N2CCN(C(=O)CC[C@H]3NC(=O)NC3=O)CC2)c1` [Cpd 136, (5R)-5-[3-[4-(5-methoxy-2-methyl-phenyl)piperazin-1-yl]-3-oxo-propyl]imidazolidine-2,4-dione], the IC50 at human ADAMTS-5 and on human ADAMTS6 was more than 100 nM in each case.

Regarding `COc1cc(Cl)c(Cl)cc1N1CCN(C(=O)CC[C@@]2(C)NC(=O)NC2=O)CC1` [Cpd 94, (5R)-5-[3-[4-(4,5-dichloro-2-methoxy-phenyl)piperazin-1-yl]-3-oxo-propyl]-5-methyl-imidazolidine-2,4-dione], the half-maximal inhibitory concentration (IC50) was more than 100 nM at human ADAMTS-5, 0.001 to 25 nM on human ADAMTS6 and more than 100 nM against human TACE.

Consider `COC[C@]1(C[C@H](C)C(=O)N2CCN(c3cc(C)c(Cl)c(OC)c3)[C@@H](C)C2)NC(=O)NC1=O` (mixture of isomers) [Cpd 126, 5-[3-[(3S)-4-(4-chloro-3-methoxy-5-methyl-phenyl)-3-methyl-piperazin-1-yl]-2-methyl-3-oxo-propyl]-5-(methoxymethyl)imidazolidine-2,4-dione], for which the IC50 is 25 to 50 nM at human ADAMTS-5 and 0.001 to 25 nM at human ADAMTS6.

In the case of `COc1cc(N2CCN(C(=O)[C@@H](C)C[C@@]3(C)NC(=O)NC3=O)C[C@@H]2C)c(C)cc1Cl` (mixture of isomers) [Cpd 45, 5-[3-[(3S)-4-(4-chloro-5-methoxy-2-methyl-phenyl)-3-methyl-piperazin-1-yl]-2-methyl-3-oxo-propyl]-5-methyl-imidazolidine-2,4-dione], the IC50 at human ADAMTS-5 and on human ADAMTS6 was more than 100 nM each time.

Consider `COc1cc(N2CCN(C(=O)[C@@H](C)C[C@@]3(c4ccccn4)NC(=O)NC3=O)C[C@@H]2C)cc(F)c1F` (stereo in doubt) [Cpd 49, 5-[3-[(3 S)-4-(3,4-difluoro-5-methoxy-phenyl)-3-methyl-piperazin-1-yl]-2-methyl-3-oxo-propyl]-5-(2-pyridyl)imidazolidine-2,4-dione], for which the IC50 on human ADAMTS4 is 50 to 100 nM; at human ADAMTS-5, 25 to 50 nM; on human ADAMTS6, 0.001 to 25 nM; on human TACE, more than 100 nM.

Broadly, the IC50 is the concentration that inhibits the measured activity by half.
